Results from patent publication US20130143244A1, “SOX9 AS A MARKER FOR AGGRESSIVE CANCER” (ADMINISTRATORS OF THE TULANE EDUCATIONAL FUND, priority 2010, published 2013).
“Also recorded” adds a separate entry of the source.

Columns and labels:
Format in all cases: cell-based, human
MDA-MB-231 cells [1] = experiment: Gene expression profiling using RT2 Profiler PCR Array; settings: MDA-MB-231 cells serum starved, TSA for 4 h, then FBS
Procedure: MDA-MB-231 cells with or without TSA treatment were harvested for total RNA using Trizol (Invitrogen) and reverse transcribed using RT^2 first strand kit from SABiosciences (Frederick, Md.). Real-Time PCR was performed according to the RT^2 Profiler PCR Array User manual (SABiosciences) using SYBR Green PCR Master Mix for the CFX96™ Real-Time PCR detection system from Bio-Rad (Bio-Rad Laboratories, Inc., Hercules, Calif.). The PAHS-090C PCR Array was repeated twice for each cDNA sample and the data were analyzed using Excel-based PCR Array Data Analysis Templates from SABiosciences.
The average Ct value of each gene obtained from duplicate experiments was used to calculate its expression value, which was expressed as 2−ΔCt (ΔCt=CtGOI−Ave CtHKG; GOI=gene of interest, HKG=housekeeping gene, Ave CtHKG=average Ct value of five housekeeping genes).

MDA-MB-231 cells [2] = experiment: MTT cytotoxicity assay; settings: for growth of MDA-MB-231 cells relative to control (cell viability by MTT): serum starved, increasing drug concentrations (TSA 50-500 nM, LMB 0.5-10 ng/ml), 48 h; for cell death: serum starved MDA-MB-231 cells, increasing drug concentrations
Procedure: MTT cytotoxicity assay: MDA-MB-231 or MCF7 cells were plated onto 96 well plates at a density of 2.5×10^3 cells/well. Cells were allowed to attach overnight and serum starved for the next 24 h. Following starvation, cells were treated with increasing concentration of Trichostatin A (50-500 nM) or Leptomycin B (0.5-10 ng/ml) and allowed to grow for next 24 h. At the end of 24 h drug treatment, media was supplemented with an equal volume of media with 20% FBS. An MTT assay was used to determine cell viability after exposure to test compounds for 48 h, including the 24 h of incubation with 10% FBS. Briefly, 10 μl of MTT reagent (5 mg/ml in PBS) was added to each well, the plate was incubated for 2-4 h to allow for the formation of formazan crystals, the media was aspirated from all wells and crystals were dissolved with 150 μl DMSO. The optical densities were measured at 540 nm on a BioTek uQuant microplate spectrophotometer (BioTek Instruments, Inc., Winooski, Vt.) and the percent of surviving cells was calculated with respect to control or untreated cells. For the modified MTT assay, the classical MTT reagent was replaced with WST-8, which produces a water soluble formazan dye upon bioreduction. For this assay, at the end of drug treatment, cells were incubated with 10 μl of WST-8 per 100 μl media/per well for 2-3 h. O.D. at 450 nm was measured to determine cell viability in each well.

[3] = test system: SOX9 localization in MDA-MB-231 cells; experiment: Immunofluorescence microscopy of SOX9 localization; settings: serum-deprived MDA-MB-231 cells, TSA 500 nM or LMB 5 ng/mL for 4 h, then 10% FBS
Procedure: Cells were grown on sterile glass coverslips in 6 well plates to 30%-40% confluence in their respective media, serum starved for the next 24 h treated with 1 nM all trans retinoic acid, 500 nM TSA or 5 ng/mL Leptomycin B for 4 h and then with 10% FBS for 2-3 h. Coverslips were washed three times in PBS and fixed in 4% paraformaldehyde for 30 minutes. After washing the coverslips again with PBS three times, they were blocked with 10% whole goat serum (Santa Cruz Biotechnology, Inc., Santa Cruz, Calif.) for thirty minutes. Cells were stained with anti-SOX9 (1:1,000 dil) antibody or anti-DDK tag antibody (OriGene Technologies, Inc., Rockville, Md.) and visualized using alexa 488-conjugated or 594-conjugated secondary (1:500 dilution) antibody (Molecular Probes®, Invitrogen Corp., Carlsbad, Calif.) as described previously (Chakravarty et al., Exp Biol Med (Maywood), 234:372-86 (2009)). For analysis, cells were visualized with a Nikon N300 microscope (Nikon Instruments Inc., Melville, N.Y.). Filter sets for FITC and DAPI were used to capture images that were then analyzed with Elements software. To establish that response to growth arrest signals was dependent on SOX9's cellular localization, both cell lines were also cultured on coverslips, serum starved for 24 h, and subsequently exposed to 10% FBS and stained with SOX9 antibody as described above.

[4] = test system: p21, SOX9 and acetylated SOX9 in MDA-MB-231 cells; experiment: Immunoblot and immunoprecipitation analysis of p21, SOX9 and acetylated SOX9; settings: for p21 expression, arbitrary units normalized to actin level, change compared to cells grown in 10% FBS medium: TSA 500 nM or LMB 5 ng/ml for 4 h
Procedure: Asynchronous cell populations at a density of 50-60% in 6-well plates were serum deprived for 24 h, treated with TSA (500 nM), or Leptomycin B (5 ng/ml) for the next 4 h and then cultured in the presence of 10% FBS for 2-3 h before harvesting. Immunoblotting was performed by solubilizing cells in RIPA buffer, electrophoresing on 10% SDS-PAGE gels, incubating with primary antibodies for 1-2 h at room temperature, and detecting primary antibodies using HRP-conjugated secondary antibodies (1:30,000 dilution, Santa Cruz Biotechnology Inc.) and Amersham® ECU® (GE Healthcare Bio-Sciences Corp., Piscataway, N.J.) as described in Wang et al., Clin Cancer Res., 12:4755-65 (2006). Western blots were quantified by calculating an integrated density value (IDV) for each band using Bio-Rad's Gel Doc™ system and normalizing to the IDV of actin. For immunoprecipitation, total protein lysates were centrifuged at 14,000×g for 15 minutes at 4° C. Supernatants were then transferred to fresh centrifuge tubes and precleared with 50 μl of protein A Sepharose™ bead slurry (50%) per 1 ml of cell lysate. Incubation was continued at 4° C. for 30 minutes on a rocker or orbital shaker. Protein A beads were then collected by centrifugation at 14,000×g at 4° C. for 5 minutes. Protein concentration of the saved supernatant was determined after removing the beads. Approximately 500 μg to 1 mg of protein from each sample was transferred to fresh centrifuge tubes and diluted to 1 ml with ice cold PBS to reduce the concentration of the detergents in the buffer. The diluted lysates were incubated with 2 μg/mg protein anti-SOX9 antibody and rotated overnight at 4° C. Immuno complexes were captured with slurry of protein A-Sepharose™ CL-4B (Sigma) pre-washed with BSA through rotations for 1 h at 4° C. and washed three times with ice-cold modified RIPA buffer (Tris-HCl: 50 mM, pH 7.4, NP-40:1%, Na-deoxycholate: 0.25%, NaCl: 150 mM, EDTA: 1 mM, PMSF: 1 mM, NaF: 1 mM). Washed Sepharose™ beads were resuspended in 60 μl RIPA buffer with SDS dye and resolved on 10% SDS-PAGE gels. Blotted proteins were immunoprobed with antilysine antibody to detect the levels of acetylated SOX9.

[5] = test system: beta catenin reporter (TOP-flash/FOP-flash) in MDA-MB-231 cells; experiment: TOP-flash / FOP-flash beta catenin reporter transfection experiment
Procedure: The Col2a1 reporter gene (Lefebvre et al., Mol Cell Biol, 17:2336-46 (1997)) was kindly provided by Prof. Benoit deCrombrugghe's laboratory. The beta catenin reporter set containing the plasmids TOP-flash and FOP-flash were made available by Prof. Randall Moon's laboratory.
For transfection, MDA-MB-231 cells were cultivated at 2.5×10^5 cells per well in 6-well plates. Twenty four hours later, transfection was performed using lipofectamine 2000 (Invitrogen) according the manufacturer's instruction. Cells in 6-well plates were transfected with 0.250 μg DNA of Col2a1 reporter or […] DNA of Top-flash or Fop-flash reporters, 10 ng of Renilla luciferase and 1.0 μg of wild type DDK tagged SOX9 per well. Top-flash or Fop-flash reporter transfected wells were treated with 15-ng/ml recombinant wnt3a protein (R&D Systems, Inc., Minneapolis, Minn.) after 24 h of transfection. All transfected cells were lysed directly in Promega's Dual Luciferase lysis buffer and collected with a cell scrape. Luciferase measurement was performed using a Optocomp I luminometer (MGM Instruments, Inc., Hamden, Conn.). Cellular localization of wild type DDK tagged SOX9 was detected using immunofluorescence as described above.

| Molecule | gene expression profile with versus without TSA treatment (MDA-MB-231 cells [1]) | growth of MDA-MB-231 cells relative to control (cell viability by MTT) (MDA-MB-231 cells [2]) | cell death (MDA-MB-231 cells [2]) | nuclear localization of SOX9 [3] | acetylation of endogenous SOX9 protein ([4]; TSA 500 nM for 4 h, immunoprecipitation and anti acetylated lysine blot) | endogenous SOX9 protein expression, arbitrary units normalized to actin level, increase ([4]; TSA 500 nM for 4 h, western blot) [fold] | p21 expression, arbitrary units normalized to actin level, change compared to cells grown in 10% FBS medium ([4]; western blot) [fold] | induction of TOP-flash reporter, wnt3a treated versus untreated cells ([5]; MDA-MB-231 cells transfected with wild type (nuclear) SOX9, 15 ng/ml recombinant wnt3a) [fold] | FOP-FLASH reporter activity, wnt3a treated versus untreated cells ([5]; MDA-MB-231 cells, mutated LEF-1/TCF-binding sites control vector) |
| --- | --- | --- | --- | --- | --- | --- | --- | --- | --- |
| CC(/C=C/C(=O)NO)=C\[C@@H](C)C(=O)c1ccc(N(C)C)cc1 [TSA, [R-(E,E)]-7-[4-(Dimethylamino)phenyl]-Nhydroxy-4,6-dimethyl-7-oxo-2,4-heptadienamide] | several fold higher expression of genes involved in growth, development and differentiation and downregulation of migration, motility and cytoskeletal genes | decrease in proliferative potential; also recorded: markedly heightened sensitivity to growth inhibition | dose dependent increase in cell death | marked increase in nuclear SOX9 staining; also recorded: enhanced nuclear localization of SOX9 | enhanced acetylation of endogenous SOX9 protein | 1.2 | 1.3 |  |  |
| CCC(=C/[C@H](C)C/C=C/C(C)=C/[C@@H](C)C(=O)[C@@H](C)[C@H](O)[C@@H](C)C/C(C)=C/C(=O)O)/C=C/[C@@H]1OC(=O)C=C[C@@H]1C [LMB, leptomycin B] |  | unaffected | unable to retain SOX9 in the nucleus or induce cell death; also recorded: unaffected | unable to retain SOX9 in the nucleus; also recorded: unaffected |  |  | 0.08 |  |  |
| wnt3a: recombinant wnt3a protein (R&D Systems) used to activate wnt signaling (protein, UniProt P56704 19-352, looked up) Protein Wnt-3a: SYPIWWSLAVGPQYSSLGSQPILCASIPGLVPKQLRFCRNYVEIMPSVAEGIKIGIQECQHQFRGRRWNCTTVHDSLAIFGPVLDKATRESAFVHAIASAGVAFAVTRSCAEGTAAICGCSSRHQGSPGKGWKWGGCSEDIEFGGMVSREFADARENRPDARSAMNRHNNEAGRQAIASHMHLKCKCHGLSGSCEVKTCWWSQPDFRAIGDFLKDKYDSASEMVVEKHRESRGWVETLRPRYTYFKVPTERDLVYYEASPNFCEPNPETGSFGTRDRTCNVSSHGIDGCDLLCCGRGHNARAERRREKCRCVFHWCCYVSCQECTRVYDVHTCK |  |  |  |  |  |  |  | 22 | unchanged |
